Reference: US20220267394A1, “COMPOUNDS FOR INDUCING TISSUE FORMATION AND USES THEREOF” (HISTIDE AG, priority 2015, published 2022)

How the values were obtained:
Assay type in all cases: cell-based
[1] = system: Neurons (Neuronal Schwann Cells); assay: Neuron growth on titanium (dendrite growth, GAP43 Q-PCR); conditions: titanium covalently modified with peptide
Source text: […]

[2] = system: Human umbilical-vein endothelial cells; assay: Endothelialization: adherent junctions (CD31) of endothelial cells on PET; conditions: PET covalently modified with peptide vs native PET, 36 hours
Protocol: (§1) The polymer used in this study is poly(ethylene terephthalate) (PET). The polymers were first treated in order to create —COOH (carboxyl) functions on the PET surfaces from —OH (hydroxyl) functions. Next, the PET-COOH samples were immersed in a solution of dimethylaminopropyl-3-ethylcarbodiimide hydrochloride (EDC, 0.2 M)+N-hydroxysuccinimide (NHS, 0.1 M) in 2-(N-morpholino)-ethanesulfonic acid (MES) buffer (0.1 M in MilliQ water) and the samples were rinsed in MilliQ water (50 mL for 30 min). The same protocol was used for all the polymers containing —OH (hydroxyl) functions on their extreme surface. Finally, the covalent immobilization of the peptides was achieved by using a solution of peptides/1×PBS (C=10^−3 M) incubated for 18 hours at room temperature. After grafting, the materials were rinsed in MilliQ water (100 ml) for 1 week.
An increase in the area of the adherent junctions (CD31) was observed after 36 hours of culture on the covalently modified PET (FIG. 13).

[3] = system: Human umbilical-vein endothelial cells; assay: Angiogenesis: tube-like structure formation on PET; conditions: PET covalently modified with peptide, 18 hours
Protocol: as §1

[4] = system: mouse mesenchymal pre-osteoblastic cells (MC3T3-E1); assay: Osteogenic differentiation of osteoblast progenitors (optical profilometry of extracellular matrix, Runx2 Q-PCR, Osteopontin immunostaining); conditions: apatite ceramics or type-I collagen sponge coupled with peptide vs native type-I collagen sponge, 48 hours
Protocol: The surface profiler system is a non-contact optical profiler that measures a wide range of surface heights. The vertical scanning interferometry mode allows for the measurement of rough surfaces and steps of up to several micrometers. This mode was used in order to measure the thickness of the extracellular matrix produced by the cells. First, after 24 h of culture, the cells were fixed with paraformaldehyde in PBS (4%) for 30 minutes at 4° C. and the samples were dehydrated in increasing concentrations of ethanol (30, 70, 80, 90, 95 and 100%) and critical-point dried. To evaluate the extent of the newly synthesized extracellular matrix, a spatula was used to scratch the surface of the materials. The samples were then metallized for 10 sec with gold or titanium before being analyzed.
The cells were first fixed for 20 min with 4% paraformaldehyde/PBS at 4° C. […]
Total RNA was extracted by using the RNeasy total RNA kit (Qiagen®) according to the manufacturer's instructions. […] Data were analyzed with the iCycler IQ™® software and compared by the ΔΔCt method. […]
The effect of the GFR-binding compounds as described herein (SEQ ID NO: 33) on the differentiation of osteoblast progenitors was evaluated. […]
An increase in the Runx2 gene expression after 24 hours of culture (FIG. 11) was observed by using Quantitative Real Time Polymerase Chain Reaction as described in the Methods section.

[5] = system: Human Mesenchymal Stem Cells (hMSCs); assay: Osteogenic differentiation of human mesenchymal stem cells (Runx2/Osterix immunostaining, ALP activity); conditions: type-I collagen sponge coupled with peptide, 1 week of culture

CTVPKPSSAPTQLSPISILYIDAANNVVYKQYEDMVVRA (CTVPKPXXAPTQLSPISILYIDAANNVVYKQYEDMVVRA; GFR-binding peptide; MOD_RES (7), (8): Xaa is C or S) [SEQ ID NO: 49]
establishment of cell-cell contacts via dendrite growth ([1]; 6 hours): rapid establishment | Growth Associated Protein 43 (GAP43) gene expression (Q-PCR) ([1]; 48 hours): high level of expression

CVPTEERSVKVAKVRIKPHQGQHKEVQV (GFR-binding peptide) [SEQ ID NO: 38]
area of the adherent junctions (CD31) [2]: increase

CVPTEESNITMQIMRIKPHQGQHIGEMSFL (GFR-binding peptide) [SEQ ID NO: 39]
formation of tube-like structures [3]: formation of tube-like structures was observed

WWFWGASSAVSQELSAISMLYLGGGLKNYQDMQHN (GFR-binding peptide) [SEQ ID NO: 33]
production of extracellular matrix proteins such as Osteopontin (OPN) [4]: extensive amounts

WWFWGKASSVPTELSPISTLYKDENEKVVLKYHYDMVVEGSGSR (WWFWGKASSVPTELSPISTLYKDENEKVVLKYHYDMVVEGXGXR; GFR-binding peptide; MOD_RES (41), (43): Xaa is C or S) [SEQ ID NO: 32]
ALP (Alkaline Phosphatase) activity [5]: increase
